Activity calls are given as the source filed them. No cut-off for these calls is given here.
How the values were obtained:
[1] = target: T1, Uracil nucleotide/cysteinyl leukotriene receptor (Homo sapiens, UniProt Q13304); assay: Displacement of [3H]PSB-12150 from human GPR17 expressed in CHO-K1 cell membranes up to 1 mM after 60 mins by liquid scintillation counting
[2] = target: T1, Uracil nucleotide/cysteinyl leukotriene receptor; conditions: CHO-K1, 100 uM
Description: Displacement of [3H]PSB-12150 from human GPR17 expressed in CHO-K1 cell membranes assessed as dissociation half life at 100 uM treated after 1 hr incubation with radioligand by liquid scintillation counting

[3] = target: T1, Uracil nucleotide/cysteinyl leukotriene receptor; conditions: CHO-K1, 100 uM; remark: listed apart in the source
Description: Displacement of [3H]PSB-12150 from human GPR17 expressed in CHO-K1 cell membranes assessed as association half life at 100 uM by liquid scintillation counting

[4] = target: T1, Uracil nucleotide/cysteinyl leukotriene receptor; assay: Displacement of [3H]PSB-12150 from human GPR17 expressed in CHO-K1 cell membranes after 60 mins by competition binding assay
[5] = target: T1, Uracil nucleotide/cysteinyl leukotriene receptor; assay: Displacement of [3H]PSB-12150 from human GPR17 expressed in CHO-K1 cell membranes after 60 mins by homologous competition binding assay in presence of pranlukast
[6] = target: T1, Uracil nucleotide/cysteinyl leukotriene receptor; assay: biochemical
Description: Displacement of [3H]PSB-12150 from human GPR17 expressed in CHO-K1 cell membranes after 60 mins by heterologous competition binding assay

[7] = target: T1, Uracil nucleotide/cysteinyl leukotriene receptor; assay: Displacement of [3H]PSB-12150 from human GPR17 expressed in CHO-K1 cell membranes at 100 uM after 60 mins by liquid scintillation counting
[8] = target: T1, Uracil nucleotide/cysteinyl leukotriene receptor; assay: Displacement of [3H]PSB-12150 from human GPR17 expressed in CHO-K1 cell membranes up to 1 uM after 60 mins by liquid scintillation counting
[9] = target: T1, Uracil nucleotide/cysteinyl leukotriene receptor; assay: Binding affinity to human GPR17 expressed in CHO-K1 cell membranes after 60 mins by saturation curve study

T1 sequence (Q13304 whole entry): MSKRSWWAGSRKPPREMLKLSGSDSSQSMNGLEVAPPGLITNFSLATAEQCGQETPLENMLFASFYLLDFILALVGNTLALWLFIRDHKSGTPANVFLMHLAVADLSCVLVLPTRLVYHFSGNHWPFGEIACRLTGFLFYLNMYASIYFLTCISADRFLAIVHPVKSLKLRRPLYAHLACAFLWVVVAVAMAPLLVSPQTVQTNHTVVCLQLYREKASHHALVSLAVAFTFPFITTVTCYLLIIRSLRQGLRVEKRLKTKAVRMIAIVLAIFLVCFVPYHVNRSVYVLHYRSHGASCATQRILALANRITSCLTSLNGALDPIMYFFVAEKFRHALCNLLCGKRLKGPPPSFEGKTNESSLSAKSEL

O=c1ccn([C@@H]2O[C@H](COP(=O)(O)OP(=O)(O)O)[C@@H](O)[C@H]2O)c(=O)[nH]1
Activity [1]: inactive

O=C(O)CCc1c(C(=O)O)[nH]c2cc(Cl)cc(Cl)c12
T1/2 [2]: 0.3 min | T1/2 [3]: 1.8 min | Ki [4]: 2320 nM | Ki [5]: 1210 nM

Nc1ncnc2c1ncn2[C@@H]1O[C@H](COP(=O)(O)OP(=O)(O)OP(=O)(O)O)[C@@H](O)[C@H]1O
Activity [1]: inactive

O=C(/C=C/c1c(C(=O)O)[nH]c2cc(Cl)cc(Cl)c12)Nc1ccccc1 [GAVESTINEL]
Ki [6]: 1630 nM

O=C(Nc1cccc2c(=O)cc(-c3nnn[nH]3)oc12)c1ccc(OCCCCc2ccccc2)cc1 [PRANLUKAST]
Ki [6]: 4060 nM

Nc1nc(=O)c2ncn([C@@H]3O[C@H](COP(=O)(O)OP(=O)(O)OP(=O)(O)O)[C@@H](O)C3O)c2[nH]1 (single isomer, unassigned)
Activity [7]: Active

CCCCC/C=C\C\C=C/C=C/C=C/[C@@H](SCC(NC(=O)CC[C@H](N)C(=O)O)C(=O)NCC(=O)O)[C@@H](O)CCCC(=O)O (single isomer, unassigned)
Activity [8]: inactive

[3H]C([3H])(C(=O)O)C([3H])([3H])c1c(C(=O)O)[nH]c2cc(Cl)cc(Cl)c12
Kd [9]: 1260 nM

CC(C)(O)c1ccccc1CC[C@@H](SCC1(CC(=O)O)CC1)c1cccc(/C=C/c2ccc3ccc(Cl)cc3n2)c1 [MONTELUKAST]
Ki [6]: 6540 nM

Nc1ncnc2c1ncn2[C@@H]1O[C@H](COP(=O)(O)OP(=O)(O)O)[C@@H](O)[C@H]1O
Activity [1]: inactive

O=c1ccn([C@@H]2O[C@H](COP(=O)(O)OP(=O)(O)OP(=O)(O)O)[C@@H](O)[C@H]2O)c(=O)[nH]1
Activity [1]: inactive
